Experimental data taken from patent publication US5066658A, “Substituted hydroxyureas” (Ortho Pharmaceutical Corporation, priority 1990, dated 1991).

How the values were obtained:
5-lipoxygenase = molecular target: T1, 5-lipoxygenase (Rattus norvegicus, UniProt P12527); assay: Inhibition of 5-lipoxygenase in cell-free homogenate of rat basophilic leukemia (RBL-1) cells; format: biochemical; details: RBL-1 cell-free homogenate; for inhibition at 3 µM: read-out: Inhibition of 5-Lipoxygenase, % Inh. @ 3 μM
T1 construct: The cell-free homogenate was prepared by sonication of the cells followed by centrifugation at 40,000 xg; endogenous in cells; host or cells: RBL-1 (rat basophilic leukemia) cells, 40,000 xg supernatant of the sonicate
T1 sequence (P12527 1-673): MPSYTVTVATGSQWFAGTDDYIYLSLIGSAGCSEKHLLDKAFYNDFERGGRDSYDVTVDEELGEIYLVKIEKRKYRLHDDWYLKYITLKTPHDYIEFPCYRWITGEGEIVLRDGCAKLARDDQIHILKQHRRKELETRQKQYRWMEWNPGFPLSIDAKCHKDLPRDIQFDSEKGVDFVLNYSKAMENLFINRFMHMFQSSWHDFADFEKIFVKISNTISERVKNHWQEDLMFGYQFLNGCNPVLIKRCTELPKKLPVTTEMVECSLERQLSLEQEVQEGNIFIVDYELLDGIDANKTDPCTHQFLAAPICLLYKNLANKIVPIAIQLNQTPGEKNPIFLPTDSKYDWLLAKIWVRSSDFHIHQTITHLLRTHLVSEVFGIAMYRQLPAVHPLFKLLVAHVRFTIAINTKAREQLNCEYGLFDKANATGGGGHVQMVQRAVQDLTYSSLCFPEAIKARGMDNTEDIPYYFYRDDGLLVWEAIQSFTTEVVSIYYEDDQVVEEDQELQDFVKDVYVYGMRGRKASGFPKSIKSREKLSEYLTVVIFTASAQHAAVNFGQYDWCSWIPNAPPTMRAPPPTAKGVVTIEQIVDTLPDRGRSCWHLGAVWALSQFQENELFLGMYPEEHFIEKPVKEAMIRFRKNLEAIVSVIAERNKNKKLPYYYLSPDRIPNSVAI
Procedure: The inhibition of 5-lipoxygenase was tested in a cell-free homogenate by the procedure of B. Jakschik et al., Biochem.Biophys.Res.Comm. 95, 103 (1980). Basically, rat basophilic leukemia cells (RBL-1 cells) were maintained in culture in a suitable medium, and were collected by centrifugation prior to assay. The cell-free homogenate was prepared by sonication of the cells followed by centrifugation at 40,000 xg. The CaCl2 dependent production of lipoxygenase products from ^14 C-arachidonic acid in the 40,000 xg supernatant was monitored in the presence of buffer (or other vehicle) or drug. Products were isolated by acidification and extraction, followed by thin layer chromatography. Radioactive areas corresponding to the authentic lipoxygenase products were quantitated by liquid scintillation counting. Data was reported as the IC50, the concentration causing 50% inhibition of the generation of lipoxygenase products. The results are shown it Table I as the percent inhibition at 3 μM or the amount of compound necessary to cause 50% inhibition.

[1] = test system: Arachidonate-Induced Ear Edema; assay: Arachidonic Acid-Induced Ear Edema Assay; format: in vivo; details: topical, mouse ear; for inhibition in vivo at 0.4 mg: 400 μg topically; for inhibition in vivo at 0.4 mg / inhibition in vivo at 0.2 mg: read-out: Inhibition of Arachidonate-Induced Ear Edema, % Inh. (μg topically); for inhibition in vivo at 0.2 mg: 200 μg topically
Procedure: The topical anti-inflammatory activity of a compound was determined by its ability to inhibit an experimentally-induced inflammation in the mouse ear. Basically, four milligrams of arachidonic acid in acetone were applied to the dorsal surface of one ear with a microliter pipette. The mice were sacrificed at various times after application of arachidonic acid (one-half to six hours). A section of each ear was removed with a 7 mm round punch and weighed on an electronic or analytical balance. The difference in weight between treated and untreated ears was determined. Compounds to be evaluated for anti-inflammatory activity can be incorporated directly into the irritant mixture or at various times prior to or after application of arachidonic acid.
The degree of anti-inflammatory activity is shown in Table I, and is expressed in terms of the percent inhibition of ear weight increase.

[2] = test system: Arachidonate-Induced Bronchospasm (cyclooxygenase); assay: Pulmonary Mechanics Assay: arachidonate-induced bronchospasm without indomethacin (indicative of cyclooxygenase inhibition); format: in vivo, male Hartley guinea pigs; details: Cavia porcellus, guinea pig; for inhibition in vivo at 50 mg/kg: ID dosing, read-out: Inhibition of Arachidonate-Induced Bronchospasm (ID Dosing), % Inh. without Indomethacin; for inhibition in vivo at 15 mg/kg: IV dosing, read-out: Inhibition of Arachidonate-Induced Bronchospasm (IV Dosing), % Inh. without Indomethacin
Procedure: (§1) The bronchodilating activity of the compounds was tested in a pulmonary mechanics assay. Basically, male Hartley guinea pigs (about 400-500 g) were anesthetized with urethane (2 g/kg, i.p.) and placed in a whole body Plethysmograph. Cannulations of a jugular vein and carotid artery were performed for compound administration and monitoring blood pressure, respectively. The trachea was cannulated for respiration at a constate volume via a miniature starling pump. A Validyne differential pressure transducer (±20 cm H2 O) sensed transpleural pressure via a 15 gauge needle inserted into the pleural cavity and a sidearm from the tracheal cannula. Tidal volume was sensed by another Validyne differential pressure transducer (±2 cm H2 O) from pressure changes inside the plethysmograph. An on-line Buxco pulmonary mechanics computer calculated air flow, dynamic lung compliance and lung resistance. The values were recorded on a print-out.
(§2) The guinea pigs were pretreated with succinyl choline (1.2 mg/kg, i.v.) to arrest spontaneous respiration. A control challenge of arachidonic acid (0.5-1.0 mg/kg, i.v.) was administered, and the animals were then dosed with the test compound by various routes. At least 10 minutes were allowed to expire between arachidonic acid challenges. A second challenge was given and compared to the control response. This comparison was indicative of cyclooxygenase inhibition. Indomethacin (10 mg/kg, i.v.) was administered immediately after the second challenge. A third challenge of a higher dose of arachidonic acid (5-10 mg/kg, i.v.) was given. This response was induced by SRS-A and compared to the responses elicited by a separate control group of animals. Activity was indicative of lipoxygenase inhibition. Propranolol (0.005 mg/kg. i.v.) may be given prior to the third challenge to enhance the response to SRS-A.
(§3) Bronchoconstriction induced by arachidonic acid with or without indomethacin was expressed as maximum percent change in dynamic lung compliance (Cdyn) and maximum percent increase in lung resistance (RL). Each guinea pig served as its own control for cyclooxygenase evaluation. The results are shown in Table I and are expressed as the percent inhibition of control.

[3] = test system: Arachidonate-Induced Bronchospasm (lipoxygenase); assay: Pulmonary Mechanics Assay: arachidonate-induced bronchospasm with indomethacin (SRS-A response, indicative of lipoxygenase inhibition); format: in vivo, male Hartley guinea pigs; details: Cavia porcellus, guinea pig; for inhibition in vivo at 50 mg/kg: ID dosing, read-out: Inhibition of Arachidonate-Induced Bronchospasm (ID Dosing), % Inh. with Indomethacin; for inhibition in vivo at 15 mg/kg: IV dosing, read-out: Inhibition of Arachidonate-Induced Bronchospasm (IV Dosing), % Inh. with Indomethacin
Procedure: as §1, §2, §3

SMILES | inhibition at 3 µM (5-lipoxygenase) [%] | inhibition in vivo at 50 mg/kg [2] [%] | inhibition in vivo at 50 mg/kg [3] [%] | further results
CCCCCCCCCCN(O)C(=O)NCC(=O)OCC [Example 3, N-(Ethoxycarbonyl)methyl-N'-decyl-N'-hydroxyurea] | 100 | – | – | inhibition in vivo at 0.4 mg [1]: 51%
CN(O)C(=O)NCCc1ccc(-c2ccccc2)cc1 [Example 31] | 39 | – | – | inhibition in vivo at 0.2 mg [1]: 40%
CCCCCCCCCCN1CCCN(O)C1=O [Example 26, 1-Decyl-3-hydroxy-3,4,5,6-tetrahydro-lH-pyrimidin-2-one] | – | – | – | IC50 (5-lipoxygenase): 0.7 µM; inhibition in vivo at 0.4 mg [1]: 30%
COc1ccc(CCNC(=O)N(C)O)cc1OCc1ccccc1 [Example 69, N-[2-(3-Benzyloxy-4-methoxyphenyl)ethyl]-N'-hydroxy-N'-methylurea] | 41 | – | – | inhibition in vivo at 0.2 mg [1]: 38%
CCCCCCCCCCN1C(=O)N(O)CC1C(=O)OCC (stereo not shown) [Example 27, Ethyl 3-decyl-1-hydroxyimidazolidin-2-one-4-carboxylate] | – | – | – | IC50 (5-lipoxygenase): 1.4 µM; inhibition in vivo at 0.4 mg [1]: 13%
CN(O)C(=O)NCCCOc1ccc(-c2ccccc2)cc1 [Example 34, N-[3-([l,l'biphenyl]-4-yloxy)propyl]N'hydroxy N'methylurea] | 93 | -74 | 34 | –
CCCCCCCN(O)C(=O)N(C)C [Example 9, N,N-Dimethyl-N'-heptyl-N'-hydroxyurea] | 64 | – | – | Inhibition of Arachidonate-Induced Ear Edema, ED50 [1]: 55 µg
CN(O)C(=O)NCCCc1ccc(-c2ccccc2)cc1 [Example 32, N-[3-([1,1'-Biphenyl]-4-yl)propyl]-N'-hydroxy-N'-methylurea] | 71 | < 20 | < 20 | –
COc1cccc(CCNC(=O)N(C)O)c1OC [Example 44, N-[2-(2,3-Dimethoxyphenyl)ethyl]-N'-hydroxy-N'-methylurea] | 33 | < 20 | 58 | –
COc1ccc(CCNC(=O)N(C)O)cc1O [Example 71, N-[2-(3-Hydroxy-4-methoxyphenyl)ethyl]-N'-hydroxy-N'-methylurea] | 5 | 77 | < 20 | –
COc1ccc(C2C3C=CC(C3)C2NC(=O)N(C)O)cc1OC (stereo not drawn) [Example 58, N-[trans-3-(3,4-Dimethoxyphenyl)bicyclo[2.2.1]-5-hepten-2-yl]-N'-hydroxy-N'-methylurea] | 37 | 35 | 68 | –
COc1ccc([C@@H]2C[C@H]2NC(=O)N(C)O)cc1OC (relative stereo) [Example 66, N-[Trans-2-(3,4-dimethoxyphenyl)cyclopropyl]-N'-hydroxy-N'-methylurea] | 28 | 43 | 45 | inhibition in vivo at 15 mg/kg [2]: 61%; inhibition in vivo at 15 mg/kg [3]: 90%
COc1ccc(CCNC(=O)NO)cc1OC [Example 72, N-[2-(3,4-Dimethoxyphenyl)ethyl]-N'-hydroxyurea] | 21 | 50 | 56 | –
CN(O)C(=O)NCCCCCOc1ccc(-c2ccccc2)cc1 [Example 36, N-[5-([l,l'Biphenyl]-4-yloxy)pentyl]N'-hydroxy-N'-methylurea] | 67 | < 20 | 31 | –
CN(O)C(=O)NCCCCOc1ccc(-c2ccccc2)cc1 [Example 35, N-[4-([1,1'-Biphenyl]-4-yloxy)butyl]N'-hydroxy-N'-methylurea] | 79 | < 20 | 33 | –
COc1cc(CCNC(=O)N(C)O)ccc1O [Example 70, N-[2-(4-Hydroxy-3-methoxyphenyl)ethyl]-N'-hydroxy-N'-methylurea] | 39 | < 20 | < 20 | –
CN(O)C(=O)NCCc1ccc(Cl)c(Cl)c1 [Example 50, N-[2-(3,4-Dichlorophenyl)ethyl]-N'-hydroxy-N'-methylurea] | 59 | < 20 | < 20 | –
CN(O)C(=O)NCCCCCCOc1ccc(-c2ccccc2)cc1 [Example 37, N-[6-([1,1'-Biphenyl]-4-yloxy)hexyl]N'hydroxy-N'-methylurea] | 65 | -33 | -11 | –
COc1cc2c(cc1OC)CC(NC(=O)N(C)O)CC2 (stereo not shown) [Example 61, N-(6,7-Dimethoxy-1,2,3,4-tetrahydro-2-naphthyl)-N'-hydroxy-N'-methylurea] | 73 | – | – | inhibition in vivo at 15 mg/kg [2]: < 20%; inhibition in vivo at 15 mg/kg [3]: < 20%
CN(O)C(=O)NCCCCCCCOc1ccc(-c2ccccc2)cc1 [Example 38] | 56 | -9 | < 20 | –
CN(O)C(=O)NCCOc1ccc(-c2ccccc2)cc1 [Example 33, N-[2-([1,1'-biphenyl]-4-yloxy)ethyl]N'-hydroxy-N'-methylurea] | 70 | < 20 | 28 | –
COc1ccc(CCCNC(=O)N(C)O)cc1OC [Example 65, N-[3-(3,4-Dimethoxyphenyl)propyl]-N'-hydroxy-N'-methylurea] | 19 | 52 | 59 | inhibition in vivo at 15 mg/kg [2]: 86%; inhibition in vivo at 15 mg/kg [3]: 89%
